Laboratory results: patent US7135578B2, “Iminocyclitol inhibitors of hexoaminidase and glycosidase” (The Scripps Research Institute, priority 1999, dated 2006)
“Also recorded” adds a separate entry of the source.

Legend:
[1] = target: T1, β-N-acetylhexosaminidase A (Homo sapiens, UniProt P06865+P07686); assay: β-N-acetylhexosaminidase A inhibition with MUG and MUGS substrates (FIGS. 13A, 13B); type: biochemical
β-glucosidase = assay: Inhibition of β-glucosidase, kinetic analysis by capillary zone electrophoresis; type: biochemical; conditions: sweet almond enzyme, CZE
Description: (§1) Initially, the total volume of assay solution was reduced because this is the only way to reduce the amount of enzyme and substrate used in the assay. The 96-well microtiter plate with a round bottom was used for the assay, and each well was sealed with tape. Thus, the assay was examined and carried out in a total volume of as little as 20 μL containing 1.76 mU of a glycosidase such as β-N-acetylhexosaminidase P. The electrophoresis was carried out using 50 mM borate buffer (pH 9.2˜10.2) as the electrolyte and the progress was monitored at 37° C. The injected volume of approximately 38.4 nL of a reaction mixture contained as little as 3.8 pmol of the substrate p-nitrophenyl (PNP) glycoside, thus the amount of PNP detected was less than 10^−12 mol. The peak corresponding to the p-nitrophenol, which appeared at around 6.5 min. in these conditions, was monitored at 405 nm.
(§2) The inhibition studies of compounds 1–9 against α- and β-glucosidases (from Saccharomyces sp. and sweet almond, respectively) were carried out. PNP-glycosides of the parent sugars were used as the substrates throughout the assay. The apparent Km and Vmax values for each substrate were calculated from the double-reciplocal plot of standard 1/v −1/[substrate] curve.^18 The Ki values were determined from a replot of the slopes of Lineweaver-Burk plots vs. the inhibitor concentrations.
Kinetic analyssis of β-glucosidase: To a 1-mL disposable cuvette was added 950 μL of 0.1 M acetate buffer (pH 5.0) solution, 20 μL of inhibitor solution, and 20 μL of 20 mM p-nitrophenyl-β-D-glucopyranoside solution. The solution was well mixed and warmed at 37° C. for 5 min, then 20 μL of the enzyme solution, which was dissolved in ice-cold Tris-HCl buffer (pH 7.8) and diluted with 10 mM phosphate buffer (pH 7.0) containing 0.2% of BSA, was added. The reaction was monitored at 400 nm on a Beckmann DU-70 spectrophotometer for 15 seconds, and the initial rate of hydrolysis was calculated. The same procedure was repeated with three other substrate concentrations. After the initial rates were accumulated, the corresponding Lineweaver-Burk plot at that inhibitor concentration was constructed.
(§3) Condition of capillary zone electrophoresis: Assays were performed on a Waters Quanta 4000E capillary electrophoresis system, which was equipped with a 53 cm×75 μm fused i.d. silica capillary. Detection was carried out by on-column measurement of u.v. absorption at 405 nm at 7.5 cm from the cathode. The capillary used was pretreated or regenerated with 0.1 M KOH (2 min) and elution buffer before each injection. Samples were loaded by means of hydrostatic pressure at 10 cm height for 30 sec (ca 38.4 nl). […] Pherograms were recorded on Millennium 2010 system from Millipore Corp. […]

α-glucosidase = assay: Inhibition of α-glucosidase, kinetic analysis by capillary zone electrophoresis; type: biochemical; conditions: Saccharomyces sp. enzyme, CZE
Description: as §1, §2
Kinetic analysis of α-glucosidase: To a 1-mL disposable cuvette was added 950 μL of 0.1 M phosphate buffer (pH 7.0) solution, 20 μL of inhibitor solution, and 20 μL of 20 mM p-nitrophenyl-α-D-glucopyranoside solution. The solution was well mixed and warmed at 37° C. for 5 min, then 20 μL of the enzyme solution in 10 mM phosphate buffer (pH 7.0) containing 0.2% of BSA was added. The reaction was monitored at 400 nm on Beckmann DU-70 spectrophotometer for 15 seconds, and the initial rate of hydrolysis was calculated. The same procedure was repeated with three other substrate concentrations. After the initial rates were accumulated, the corresponding Lineweaver-Burk plot at that inhibitor concentration was constructed.
as §3

[2] = target: β-glucosidease from Almond; conditions: β-glucosidase from Almond, reported by Watson et al.; cited from earlier work
[3] = target: α-glucosidase from baker's yeast; conditions: reported by Watson et al.; cited from earlier work
[4] = target: β-N-acetylglucosaminidase; assay: Inhibition of β-N-acetylglucosaminidase, kinetic analysis by CZE; type: biochemical; conditions: β-N-acetylglucosaminidase from bovine kidney, substrate PNP-GlcNAc, replot of Lineweaver-Burk slopes
Description: as §1
The inhibition studies of compounds 1–9 against α- and β-glucosidases (from Saccharomyces sp. and sweet almond, respectively) were carried out. PNP-glycosides of the parent sugars were used as the substrates throughout the assay. The apparent Km and Vmax values for each substrate were calculated from the double-reciplocal plot of standard 1/v −1/[substrate] curve.^18 The Ki values were determined from a replot of the slopes of Lineweaver-Burk plots vs. the inhibitor concentrations. […]

β-N-acetylhexoaminidases = assay: Intracellular β-N-acetylhexoaminidases activity (FIG. 12); type: cell-based
GAGs = assay: Whole cell assay of GAG concentration; type: cell-based
[5] = target: T1, β-N-acetylhexosaminidase A; assay: Inhibition of β-N-acetylhexosaminidase A from human placenta; type: biochemical; design: Kinetic analysis of β-N-acetylhexosaminidase from human placenta; purchased Sigma Chemical Co. (St. Louis, Mo., USA); host or cells: human placenta; conditions: β-N-acetylhexaoaminidases A from human placenta
Description: Condition of capillary zone electrophoresis: Assays were performed on a Waters Quanta 4000E capillary electrophoresis system, which was equipped with a 53 cm×75 μm fused i.d. silica capillary. Detection was carried out by on-column measurement of u.v. absorption at 405 nm at 7.5 cm from the cathode. The capillary used was pretreated or regenerated with 0.1 M KOH (2 min) and elution buffer before each injection. Samples were loaded by means of hydrostatic pressure at 10 cm height for 30 sec (ca 38.4 nl). Electrophoresis was performed at 20 kV using 50 mM sodium borate (pH 9.2 for β-N-Acetylglucosaminidase assays, pH 9.4 for β-glucosidase assays, pH 10.2 for α-glucosidase and β-N-acetylhexosaminidase assay) as electrolyte at a constant temperature of 37° C. Pherograms were recorded on Millennium 2010 system from Millipore Corp.
Kinetic analysis of β-N-acetylhexosaminidase from human placenta: Incubations were performed in a total volume of 20 μL. Unless otherwise stated, reaction mixtures contained 100 mM citrate buffer (pH 4.5), various amount of p-NP-GlcNAc (0.1–1.1 mM) and various amount of inhibitor with 3.35 mU of β-N-acetylhexosaminidase A and 1.76 mU of β-N-acetylhexosaminidase P. After preincubation for 10 min at 37° C., the reaction was started by the addition of β-N-Acetylglucosaminidase and the reaction mixture was incubated for 15 min at 37° C. […]

T1 sequence (P06865 89-529): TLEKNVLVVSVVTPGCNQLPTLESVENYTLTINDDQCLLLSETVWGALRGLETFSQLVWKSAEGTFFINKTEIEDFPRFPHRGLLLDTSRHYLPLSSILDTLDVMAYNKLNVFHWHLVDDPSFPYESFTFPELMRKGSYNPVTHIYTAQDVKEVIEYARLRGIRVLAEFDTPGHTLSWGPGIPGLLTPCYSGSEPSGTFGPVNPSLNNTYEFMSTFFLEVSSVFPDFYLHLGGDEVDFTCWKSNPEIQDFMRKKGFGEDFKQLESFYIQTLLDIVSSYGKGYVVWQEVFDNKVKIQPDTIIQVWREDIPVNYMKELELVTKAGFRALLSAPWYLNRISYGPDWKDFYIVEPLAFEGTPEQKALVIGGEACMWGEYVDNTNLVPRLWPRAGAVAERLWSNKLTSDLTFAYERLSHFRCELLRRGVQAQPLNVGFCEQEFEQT
T1 sequence (P06865 23-74 limits assumed): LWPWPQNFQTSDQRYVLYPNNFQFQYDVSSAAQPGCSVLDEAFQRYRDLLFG
T1 sequence (P07686 315-556 limits assumed): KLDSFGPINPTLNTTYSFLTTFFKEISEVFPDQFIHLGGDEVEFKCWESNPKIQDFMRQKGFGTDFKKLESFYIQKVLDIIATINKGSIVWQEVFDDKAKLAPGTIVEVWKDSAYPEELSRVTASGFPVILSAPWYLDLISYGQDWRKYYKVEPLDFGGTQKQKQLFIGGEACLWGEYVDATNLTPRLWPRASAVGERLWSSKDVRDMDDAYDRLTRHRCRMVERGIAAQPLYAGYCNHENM
T1 sequence (P07686 122-311 limits assumed): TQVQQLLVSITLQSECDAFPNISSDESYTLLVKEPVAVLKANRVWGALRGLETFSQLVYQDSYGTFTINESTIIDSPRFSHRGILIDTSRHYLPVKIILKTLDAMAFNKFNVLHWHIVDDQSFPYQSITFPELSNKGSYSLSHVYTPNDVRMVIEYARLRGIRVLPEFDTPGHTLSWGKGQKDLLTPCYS
T1 sequence (P07686 50-107 limits assumed): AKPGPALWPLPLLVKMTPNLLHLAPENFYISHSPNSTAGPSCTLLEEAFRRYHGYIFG

**Q.** Which “inhibition activity towards MUGS compared with MUG” value [1] does the source give for CC1=N[C@@H]2[C@@H](O)[C@H](O)[C@@H](CO)O[C@@H]2S1 [Compound 107, NAG-thioazoline] here?
**A.** Its value is “higher inhibition activity to MUG than to MUGS”.

**Q.** For OC[C@H](O)[C@H]1N[C@H](CO)[C@@H](O)[C@H]1O [Compound 1, (2R,3S,4R,5R,1′R)-5-hydroxymethyl-3,4-dihydroxy-2-(1′,2′-dihydroxy)ethyl-pyrrolidine], which “inhibitory activity against β-glucosidase” value (β-glucosidase) is on record?
**A.** Its value is “weak inhibitor”.

**Q.** What about the “inhibitory activity against α-glucosidase” value (α-glucosidase) of the same compound?
**A.** Its value is “weak inhibitor”.

**Q.** Which “inhibition activity towards MUGS compared with MUG” value [1] does the source give for Sulfated NAG-thiozoline [Compound 108] here?
**A.** The value was “higher inhibition activity towards the 6-sulfate-4-methyl-umbelliferyl-β-D-N-acetylglucosamine (MUGS) than to 4-methyl-umbelliferyl-β-D-N-acetylglucosamine (MUG)”.

**Q.** Which results are given for OC[C@H](O)[C@@H]1N[C@H](CO)[C@@H](O)[C@@H]1O [Compound 2, (1′R,2S,3R,4R,5R)-3,4-dihydroxy-2-[1′,2′-dihydroxy-ethyl]-5-hydroxymethyl-pyrrolidine]?
**A.** inhibitory activity against β-glucosidase (β-glucosidase): potent inhibitory activities; inhibitory activity against α-glucosidase (α-glucosidase): potent inhibitory activities; Ki [2]: 4000 µM; Ki [3]: 85000 µM

**Q.** Which results are given for CC(=O)NC[C@@H]1[C@@H](O)[C@H](O)[C@@H](CO)N1C [Compound 4, (2R,3R,4R,5R)-N-Methyl-(2-acetamidomethyl-3,4-dihydroxy-5-hydroxymethyl)-pyrrolidine]?
**A.** Ki [4]: 0.11 µM; intracellular β-N-acetylhexaoaminidases activity (β-N-acetylhexoaminidases): dramatically decreased; GAG's intracellular concentration (GAGs): increase; GAGs' extracellular concentration (GAGs): decrease; Ki [5]: 0.024 µM

**Q.** Which results are given for OC[C@H]1N[C@H](CNC[C@H]2N[C@H](CO)[C@@H](O)[C@@H]2O)[C@@H](O)[C@@H]1O [Compound 9, N,N-di-{[(2R,3R,4R,5R)-(3,4-hydroxy-5-hydroxymethyl)-pyrrolidine]methyl} amine]?
**A.** inhibitory activity against β-glucosidase (β-glucosidase): inhibitory activity at the same level as 1 and 7; inhibitory activity against α-glucosidase (α-glucosidase): as effective as 2

**Q.** For CC(=O)NC[C@@H](O)[C@H]1N[C@H](CO)[C@@H](O)[C@@H]1O [Compound 6], which “inhibitory activity against β-glucosidase” value (β-glucosidase) is on record?
**A.** Its value is “potent inhibitors; also recorded: identical inhibitory activity to 2”.

**Q.** And the “inhibitory activity against α-glucosidase” value (α-glucosidase)?
**A.** The value was “identical inhibitory activity to 2”.
